Consider nine compounds from ChEMBL document CHEMBL5543160, “Psychoplastogenic DYRK1A Inhibitors with Therapeutic Effects Relevant to Alzheimer's Disease” (J Med Chem, 2024).

For data set [1], the target named is Dual specificity tyrosine-phosphorylation-regulated kinase 1A (Homo sapiens, UniProt Q13627).
Data set [2] can be described thus: Toxicity in C57BL/6J mouse assessed as induction of head-twitch response upto 30 mg/kg, ip measured for 10 mins. It counts as organism-based. The settings on record: in vivo.
The test system of data set [3] is Cortical neurone. The data set can be described thus: Psychoplastogenic effect in Sprague-Dawley rat cortical neuron assessed as increase in dendritic spine density at 10 uM incubated for 24 hrs by spinogenesis based confocal microscopic analysis. It is filed as functional, cell-based.
Data set [4] concerns Cortical neurone. Kind of data set: Induction of neurite outgrowth in Wistar rat Primary cortical neurons assessed as increase in neurite length incubated for 72 hrs by imaging analysis. It counts as functional, cell-based. The settings on record: dose 0.3-10 µM.
Data set [5] has as its target Microtubule-associated protein tau (Rattus norvegicus) (UniProt P19332). The data set can be described thus: Inhibition of okadaic acid-induced Tau hyperphosphorylation Ser202/Thr205 residues in Sprague-Dawley rat cortical neuron at 50 uM preincubated with compound for 24 hrs followed by okadaic acid addition and measured after 1 hrs by fluorescence based immunohistochemistry analysis. It is filed as cell-based.

A short description of data set [6]: Toxicity in C57BL/6J mouse assessed as effect on locomotion upto 30 mg/kg, ip measured for 10 mins. It is filed as organism-based. The settings on record: in vivo.
Data set [7] concerns Cortical neurone. The data set can be described thus: Induction of neurite outgrowth in Wistar rat Primary cortical neurons assessed as increase in neurite branching incubated for 72 hrs by imaging analysis. It is filed as functional, cell-based. To be noted: dose 0.3-10 µM.
In the next data set the test system is Mus musculus. Kind of data set: Antipsychotic activity in C57BL/6J mouse assessed as reduction in 5-MeO-DMT-induced head-twitch response at 30 mg/kg, ip pretreated with compound for 10 mins followed by 5-MeO-DMT addition and measured after 20 mins. To be noted: time 30.0 min. It counts as functional, organism-based.
For data set [8], the target named is 5-hydroxytryptamine receptor 2A (Homo sapiens) (UniProt P28223). Kind of data set: Agonist activity at 5-HT2AR (unknown origin) in human PSYLI2 cells assessed as increase in biosensor activation at 10 uM incubated for 5 mins by PsychLight2 assay. The settings on record: PSYLI2 cell. It counts as functional, cell-based.
5-hydroxytryptamine receptor 2A (Homo sapiens), sequence (P28223 whole entry): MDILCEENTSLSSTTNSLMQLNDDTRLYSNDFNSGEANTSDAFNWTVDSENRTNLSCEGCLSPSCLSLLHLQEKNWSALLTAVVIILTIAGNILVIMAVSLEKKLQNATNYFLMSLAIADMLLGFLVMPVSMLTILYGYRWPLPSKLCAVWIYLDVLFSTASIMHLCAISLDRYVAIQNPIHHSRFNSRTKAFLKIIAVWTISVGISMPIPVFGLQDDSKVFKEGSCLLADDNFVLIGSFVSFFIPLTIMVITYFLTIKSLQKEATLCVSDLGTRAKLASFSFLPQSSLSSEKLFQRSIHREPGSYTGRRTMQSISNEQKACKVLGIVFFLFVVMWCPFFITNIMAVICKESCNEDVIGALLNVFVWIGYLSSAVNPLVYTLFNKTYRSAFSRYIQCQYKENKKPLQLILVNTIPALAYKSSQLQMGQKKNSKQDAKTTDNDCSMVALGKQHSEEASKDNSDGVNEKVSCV
For data set [9] the target is unchanged. Kind of data set: Antagonist activity at 5-HT2AR (unknown origin) in human PSYLI2 cells assessed as decrease in fluorescence at 10 uM pretreated with 5-HT for 10 mins followed by compound addition and measured after 5 mins by PsychLight2 assay. It counts as functional, cell-based. To be noted: PSYLI2 cell, filed as antagonist.
Data set [10] concerns the target Microtubule-associated protein tau (Rattus norvegicus) (UniProt P19332). Kind of data set: Inhibition of okadaic acid-induced Tau hyperphosphorylation Ser202/Thr205 residues in Sprague-Dawley rat cortical neuron at 1 to 50 uM preincubated with compound for 24 hrs followed by okadaic acid addition and measured after 1 hrs by fluorescence based immunohistochemistry analysis. To be noted: dose 1-50 µM. It counts as cell-based.

For data set [11], the target named is Phosphatidylinositol 4,5-bisphosphate 3-kinase catalytic subunit gamma isoform (Homo sapiens) (UniProt P48736). The data set can be described thus: Inhibition of PIK3CG (unknown origin) at 10 uM by DiscoverX KINOMEscan assay.
Phosphatidylinositol 4,5-bisphosphate 3-kinase catalytic subunit gamma isoform (Homo sapiens), sequence (P48736 whole entry, looked up, canonical isoform): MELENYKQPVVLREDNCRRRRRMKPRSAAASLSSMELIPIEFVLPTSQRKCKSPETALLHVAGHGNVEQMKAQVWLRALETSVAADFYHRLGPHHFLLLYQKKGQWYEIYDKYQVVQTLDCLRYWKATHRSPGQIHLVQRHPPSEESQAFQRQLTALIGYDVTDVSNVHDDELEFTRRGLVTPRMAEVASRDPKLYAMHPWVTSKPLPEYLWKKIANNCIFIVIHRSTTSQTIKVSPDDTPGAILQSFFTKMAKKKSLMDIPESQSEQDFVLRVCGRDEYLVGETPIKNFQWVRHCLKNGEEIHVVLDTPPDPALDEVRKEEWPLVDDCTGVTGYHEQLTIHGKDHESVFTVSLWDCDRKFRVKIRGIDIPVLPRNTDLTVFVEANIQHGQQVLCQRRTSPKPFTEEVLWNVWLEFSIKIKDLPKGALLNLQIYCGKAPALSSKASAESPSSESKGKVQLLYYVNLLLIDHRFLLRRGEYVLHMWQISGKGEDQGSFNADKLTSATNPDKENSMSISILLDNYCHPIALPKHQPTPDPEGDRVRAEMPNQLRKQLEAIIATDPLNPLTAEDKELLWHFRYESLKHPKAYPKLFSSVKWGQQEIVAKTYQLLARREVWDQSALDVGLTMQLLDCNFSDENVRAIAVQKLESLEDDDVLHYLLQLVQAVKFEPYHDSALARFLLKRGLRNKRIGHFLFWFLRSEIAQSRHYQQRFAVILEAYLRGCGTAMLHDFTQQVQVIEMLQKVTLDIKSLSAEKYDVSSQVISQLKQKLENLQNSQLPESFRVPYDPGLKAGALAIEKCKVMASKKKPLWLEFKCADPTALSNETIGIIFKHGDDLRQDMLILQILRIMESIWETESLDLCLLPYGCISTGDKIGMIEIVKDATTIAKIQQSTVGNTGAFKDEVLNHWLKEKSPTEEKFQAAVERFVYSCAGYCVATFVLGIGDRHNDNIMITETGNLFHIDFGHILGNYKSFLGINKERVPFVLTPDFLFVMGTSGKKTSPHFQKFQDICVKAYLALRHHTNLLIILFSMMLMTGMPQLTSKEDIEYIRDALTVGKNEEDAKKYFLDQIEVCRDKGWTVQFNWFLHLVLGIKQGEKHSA
Data set [12] addresses Casein kinase I (Homo sapiens) (UniProt Q9HCP0+P78368+P48730+P49674+P48729). Kind of data set: Inhibition of CK1 (unknown origin) at 10 uM by DiscoverX KINOMEscan assay. It is filed as protein assay.
In data set [13] the target is Cyclin-dependent kinase 7 (Homo sapiens) (UniProt P50613). The data set can be described thus: Inhibition of CDK7 (unknown origin) at 10 uM by DiscoverX KINOMEscan assay.
Cyclin-dependent kinase 7 (Homo sapiens), sequence (P50613 whole entry): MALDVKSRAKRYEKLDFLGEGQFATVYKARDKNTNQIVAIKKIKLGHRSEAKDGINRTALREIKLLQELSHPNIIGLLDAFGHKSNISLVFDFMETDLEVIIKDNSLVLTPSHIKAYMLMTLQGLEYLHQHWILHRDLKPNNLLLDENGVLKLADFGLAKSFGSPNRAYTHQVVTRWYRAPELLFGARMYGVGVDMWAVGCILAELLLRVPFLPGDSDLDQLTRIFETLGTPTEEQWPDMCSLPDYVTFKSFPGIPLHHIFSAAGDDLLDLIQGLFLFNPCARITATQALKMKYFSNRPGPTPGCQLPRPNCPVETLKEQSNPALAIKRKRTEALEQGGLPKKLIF
The species entered for another data set is Homo sapiens. The data set can be described thus: Inhibition of CAMK (unknown origin) at 10 uM by DiscoverX KINOMEscan assay.

Calls of active or inactive are those of the source. The calls are words filed in the database; no cut-off is given here. Some results are limits rather than exact numbers.

Microtubule-associated protein tau (Rattus norvegicus), sequence (P19332 whole entry): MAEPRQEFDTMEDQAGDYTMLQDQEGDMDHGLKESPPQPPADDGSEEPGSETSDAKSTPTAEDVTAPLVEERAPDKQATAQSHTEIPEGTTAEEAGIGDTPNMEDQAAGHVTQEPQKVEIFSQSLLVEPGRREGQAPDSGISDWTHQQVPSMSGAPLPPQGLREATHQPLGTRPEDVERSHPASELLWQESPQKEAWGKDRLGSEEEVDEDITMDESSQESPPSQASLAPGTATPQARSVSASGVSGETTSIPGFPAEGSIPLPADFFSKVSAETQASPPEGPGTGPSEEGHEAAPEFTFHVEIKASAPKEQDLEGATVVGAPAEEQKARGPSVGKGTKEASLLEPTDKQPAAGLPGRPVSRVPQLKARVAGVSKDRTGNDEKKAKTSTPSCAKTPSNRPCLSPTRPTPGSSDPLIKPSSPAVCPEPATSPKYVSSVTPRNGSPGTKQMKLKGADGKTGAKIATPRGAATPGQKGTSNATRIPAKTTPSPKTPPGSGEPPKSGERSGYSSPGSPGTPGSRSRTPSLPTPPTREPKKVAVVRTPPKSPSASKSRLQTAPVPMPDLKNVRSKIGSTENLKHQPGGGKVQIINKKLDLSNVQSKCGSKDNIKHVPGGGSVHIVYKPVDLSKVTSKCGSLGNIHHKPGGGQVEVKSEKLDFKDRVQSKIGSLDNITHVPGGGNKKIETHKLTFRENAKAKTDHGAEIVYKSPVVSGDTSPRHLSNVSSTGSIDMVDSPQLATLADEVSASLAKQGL

In turn, `COc1ccc2c3ccnc(C)c3n(CCN(C)C)c2c1.O=C(O)/C=C/C(=O)O` registered an IC50 in data set [1] of 209 nM. The Activity entry in data set [2] was “Non-Toxic”; with Cortical neurone [4] it was “Dose-Dependent Effect”; in data set [6], “Non-Toxic”; in the data set on Cortical neurone [7] it was “Dose-Dependent Effect”. For the same compound, the outcome in the data set on Cortical neurone [3] and in the data set with Mus musculus was Active. Moreover, in data set [5], the inhibition entry is “Active”.

For `CC(=O)/C=C1\Sc2ccccc2N1CCN(C)C`, in data set [8], the outcome was inactive. Moreover, the outcome in data set [9] was Active.

For `Cc1nccc2c3ccccc3n(CCN(C)C)c12`, in data set [1], the IC50 was > 10000 nM. The result in data set [8] was inactive. Further, in data set [9], the outcome was Active.

`NCCc1c[nH]c2ccc(O)cc12`: the outcome in [8] (filed as agonist) was Active.

With `COc1ccc2c(c1)S/C(=C\C(C)=O)N2CCN(C)C`, the result in data set [8] was inactive. Besides, in data set [9], the outcome was Active.

`COc1ccc2c(c1)c1ccnc(C)c1n2CCN(C)C`: the IC50 in data set [1] was > 10000 nM. The result in [8] was inactive. Further, the result in data set [9] was Active.

As to `CN(C)CCc1c[nH]c2ccccc12`, the outcome with Cortical neurone [3] was Active. Further, the inhibition result in [10] was “inactive”.

On to `COc1ccc2c(c1)[nH]c1c(C)nccc12`, for which the inhibition result (in data set [11]; in data set [12]; in [13]; in the data set listed under Homo sapiens; in data set [10]) was “Active” throughout. Further, the result in the data set on Cortical neurone [3] was inactive.

As to `COc1ccc2c(c1)N(CCN(C)C)/C(=C/C(C)=O)S2`, in [1], half-maximal inhibition (IC50) required 561 nM. Besides, the Activity result in the data set with Cortical neurone [4] and in the data set with Cortical neurone [7] was “Dose-Dependent Effect” in each case. Also, in [10], the inhibition result is “inactive”.
